The values that follow come from PubChem BioAssay AID1259411 (Chemical Carcinogenesis Research Information System (CCRIS), 2018).

For this series, the system named is rodent carcinogenicity bioassays, tumor incidence. Description: CCRIS carcinogenicity studies. To be noted: Species: MOUSE. A digest of the protocol:
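Archive of carcinogenicity, mutagenicity, tumor promotion and tumor inhibition results drawn from journals, NCI reports and other sources, expert-reviewed; covers 1985-2011 and is no longer updated.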

The source made the active and inactive calls. The rule behind the calls is not given here.

As to `c1ccc2c(c1)cc1ccc3cccc4ccc2c1c34`, the carcinogen call was “active; positive” (Strain/Sex: NIGP(S)/FEMALE, Route: SUBCUTANEOUS, Dose: 0, 0.5, 1 MG IN 1% AQUEOUS GELATIN INJECTED IN THE SCAPULAR REGION OF NEWBORN MICE ONCE (STUDY DURATION: 9 WK), Dose: 0, 0.5, 1 MG IN 1% AQUEOUS GELATIN INJECTED IN THE SCAPULAR REGION OF NEWBORN MICE ONCE (STUDY DURATION: 9 WK), Tumor Site: Type of Lesion: LUNG: ADENOMA); “active; positive” (Strain/Sex: NIGP(S)/FEMALE, Route: SUBCUTANEOUS, Dose: 0, 40, 62.5, 125, 250, 500, 1000 UG INJECTED IN THE SCAPULAR REGION OF NEWBORN MICE ONCE (STUDY DURATION: 9 WK), Dose: 0, 40, 62.5, 125, 250, 500, 1000 UG INJECTED IN THE SCAPULAR REGION OF NEWBORN MICE ONCE (STUDY DURATION: 9 WK), Tumor Site: Type of Lesion: LUNG: ADENOMA); “active; positive” (Strain/Sex: NIGP(S)/MALE, Route: SUBCUTANEOUS, Dose: 0, 0.5, 1 MG IN 1% AQUEOUS GELATIN INJECTED IN THE SCAPULAR REGION OF NEWBORN MICE ONCE (STUDY DURATION: 9 WK), Dose: 0, 0.5, 1 MG IN 1% AQUEOUS GELATIN INJECTED IN THE SCAPULAR REGION OF NEWBORN MICE ONCE (STUDY DURATION: 9 WK), Tumor Site: Type of Lesion: LUNG: ADENOMA); “active; positive” (Strain/Sex: NIGP(S)/MALE, Route: SUBCUTANEOUS, Dose: 0, 40, 62.5, 125, 250, 500, 1000 UG INJECTED IN THE SCAPULAR REGION OF NEWBORN MICE ONCE (STUDY DURATION: 9 WK), Dose: 0, 40, 62.5, 125, 250, 500, 1000 UG INJECTED IN THE SCAPULAR REGION OF NEWBORN MICE ONCE (STUDY DURATION: 9 WK), Tumor Site: Type of Lesion: LUNG: ADENOMA); “active; positive” (Strain/Sex: SENCAR/FEMALE, Route: DERMAL, Dose: 0, 12.6, 25.2, 50.2, 101, 202 UG/WK FOR 50-52 WK (STUDY DURATION: 1 YR), Dose: 0, 12.6, 25.2, 50.2, 101, 202 UG/WK FOR 50-52 WK (STUDY DURATION: 1 YR), Tumor Site: Type of Lesion: SKIN: CARCINOMA); “active; positive” (Strain/Sex: SENCAR/MALE, Route: DERMAL, Dose: 0, 12.6, 25.2, 50.5, 101, 202 UG/WK FOR 50-52 WK (STUDY DURATION: 1 YR), Dose: 0, 12.6, 25.2, 50.5, 101, 202 UG/WK FOR 50-52 WK (STUDY DURATION: 1 YR), Tumor Site: Type of Lesion: SKIN: CARCINOMA). The carcinogen call (Strain/Sex: STRAIN-A/FEMALE, Route: GAVAGE, Dose: 0, 1, 2, 3 UMOL IN 0.1 ML COTTONSEED OIL 1/WK FOR 8 WK (STUDY DURATION: 26 WK), Dose: 0, 1, 2, 3 UMOL IN 0.1 ML COTTONSEED OIL 1/WK FOR 8 WK (STUDY DURATION: 26 WK), Tumor Site: Type of Lesion: LUNG: ADENOMA, FORESTOMACH: TUMOR) was “active; positive”; the carcinogen call (Strain/Sex: STRAIN-A/FEMALE, Route: INTRAPERITONEAL, Dose: 0, 1, 2, 3 UMOL IN 0.1 ML COTTONSEED OIL 1/WK FOR 8 WK (STUDY DURATION: 26 WK), Dose: 0, 1, 2, 3 UMOL IN 0.1 ML COTTONSEED OIL 1/WK FOR 8 WK (STUDY DURATION: 26 WK), Tumor Site: Type of Lesion: LUNG: ADENOMA, FORESTOMACH: TUMOR) was “active; positive”; the carcinogen call (Strain/Sex: STRAIN-A/FEMALE, Route: INTRATRACHEAL, Dose: 0, 0.5, 1 MG ON CHARCOAL POWDER INSTILLED 8 TIMES (STUDY DURATION: 13 WK), Dose: 0, 0.5, 1 MG ON CHARCOAL POWDER INSTILLED 8 TIMES (STUDY DURATION: 13 WK), Tumor Site: Type of Lesion: LUNG: SQUAMOUS CELL CARCINOMA OR ADENOCARCINOMA) was “active; positive”; the carcinogen call (Strain/Sex: STRAIN-A/FEMALE, Route: ORAL, Dose: 0, 16, 98 PPM IN DIET FOR 260 D (STUDY DURATION: 260 D), Dose: 0, 16, 98 PPM IN DIET FOR 260 D (STUDY DURATION: 260 D), Tumor Site: Type of Lesion: LUNG: TUMOR, FORESTOMACH: TUMOR) is “active; positive”; the carcinogen call (Strain/Sex: STRAIN-A/FEMALE, Route: SUBCUTANEOUS, Dose: 0, 0.5, 1 MG IN 1% AQUEOUS GELATIN INJECTED IN THE SCAPULAR REGION OF NEWBORN MICE ONCE (STUDY DURATION: 9 WK), Dose: 0, 0.5, 1 MG IN 1% AQUEOUS GELATIN INJECTED IN THE SCAPULAR REGION OF NEWBORN MICE ONCE (STUDY DURATION: 9 WK), Tumor Site: Type of Lesion: LUNG: ADENOMA) is “active; positive”; the carcinogen call (Strain/Sex: STRAIN-A/FEMALE, Route: SUBCUTANEOUS, Dose: 0, 40, 62.5, 125, 250, 500, 1000 UG FOR 9 WK (STUDY DURATION: 9 WK), Dose: 0, 40, 62.5, 125, 250, 500, 1000 UG FOR 9 WK (STUDY DURATION: 9 WK), Tumor Site: Type of Lesion: LUNG: ADENOMA) was “active; positive”. The carcinogen call is “active; positive” (Strain/Sex: STRAIN-A/FEMALE, Route: SUBCUTANEOUS, Dose: 0, 40, 62.5, 125, 250, 500, 1000 UG INJECTED IN THE SCAPULAR REGION OF NEWBORN MICE ONCE (STUDY DURATION: 9 WK), Dose: 0, 40, 62.5, 125, 250, 500, 1000 UG INJECTED IN THE SCAPULAR REGION OF NEWBORN MICE ONCE (STUDY DURATION: 9 WK), Tumor Site: Type of Lesion: LUNG: ADENOMA); “active; positive” (Strain/Sex: STRAIN-A/MALE, FEMALE, Route: INTRAPERITONEAL, Dose: 2 MG, 1/WK, Tumor Site: Type of Lesion: PERITONEAL CAVITY: FIBROSARCOMA); “active; positive” (Strain/Sex: STRAIN-A/MALE,FEMALE, Route: INTRAPERITONEAL, Tumor Site: Type of Lesion: PERITONEAL CAVITY: FIBROSARCOMA); “active; positive” (Strain/Sex: STRAIN-A/MALE, Route: INTRAPERITONEAL, Dose: 0-200 MG/KG IN TRICAPRYLIN ONCE (STUDY DURATION: 8 MO), Tumor Site: Type of Lesion: LUNG: ADENOMA); “active; positive” (Strain/Sex: STRAIN-A/MALE, Route: INTRAPERITONEAL, Dose: 0, 5, 10, 50, 100, 200 MG/KG BW ONCE (STUDY DURATION: 8 MO), Dose: 0, 5, 10, 50, 100, 200 MG/KG BW ONCE (STUDY DURATION: 8 MO), Tumor Site: Type of Lesion: LUNG: ADENOMA); “active; positive” (Strain/Sex: STRAIN-A/MALE, Route: SUBCUTANEOUS, Dose: 0, 0.5, 1 MG IN 1% AQUEOUS GELATIN INJECTED IN THE SCAPULAR REGION OF NEWBORN MICE ONCE (STUDY DURATION: 9 WK), Dose: 0, 0.5, 1 MG IN 1% AQUEOUS GELATIN INJECTED IN THE SCAPULAR REGION OF NEWBORN MICE ONCE (STUDY DURATION: 9 WK), Tumor Site: Type of Lesion: LUNG: ADENOMA). The carcinogen call (Strain/Sex: STRAIN-A/MALE, Route: SUBCUTANEOUS, Dose: 0, 40, 62.5, 125, 250, 500, 1000 UG FOR 9 WK (STUDY DURATION: 9 WK), Dose: 0, 40, 62.5, 125, 250, 500, 1000 UG FOR 9 WK (STUDY DURATION: 9 WK), Tumor Site: Type of Lesion: LUNG: ADENOMA) is “active; positive”; the carcinogen call (Strain/Sex: STRAIN-A/MALE, Route: SUBCUTANEOUS, Dose: 0, 40, 62.5, 125, 250, 500, 1000 UG INJECTED IN THE SCAPULAR REGION OF NEWBORN MICE ONCE (STUDY DURATION: 9 WK), Dose: 0, 40, 62.5, 125, 250, 500, 1000 UG INJECTED IN THE SCAPULAR REGION OF NEWBORN MICE ONCE (STUDY DURATION: 9 WK), Tumor Site: Type of Lesion: LUNG: ADENOMA) was “active; positive”; the carcinogen call (Strain/Sex: SWISS/FEMALE, Route: DERMAL, Dose: 0, 1, 4, 8 NMOL IN 100 µL ACETONE 2/WK FOR 40 WK (STUDY DURATION: 48 WK), Dose: 0, 1, 4, 8 NMOL IN 100 µL ACETONE 2/WK FOR 40 WK (STUDY DURATION: 48 WK)) is “inactive; negative”.
